Reference: article PMC4302056 (Bioorganic & medicinal chemistry, 2014)
Values after ≈ are worked out from the molar mass of the structure shown. “Also recorded” adds a separate entry of the source.

Tests used:
[1] = test system: Histoplasma capsulatum; test: microbe, parasite or virus in culture; type: cell-based; settings: for MIC50: Histoplasma capsulatum, 96 h, read-out: Histoplasma capsulatum MIC50; for anti-Histoplasma activity (in words): qualitative statement
[2] = test system: Cryptococcus neoformans; type: cell-based
[3] = test system: DU-145 human prostate cancer cells; settings: read-out: IC50 of in vitro proliferation inhibition; cited from earlier work
[4] = test system: Blastomyces dermatitidis; settings: cited from earlier work
[5] = test system: Aspergillus fumigatus; settings: cited from earlier work
[6] = test system: Histoplasma yeast; settings: inhibitory vs microbicidal; cited from earlier work
[7] = test system: Candida albicans; settings: cited from earlier work

O=C(Nc1ncc(Cc2ccccc2)s1)C1CCCCC1 [Compound 4d, N-(5-Benzylthiazol-2-yl)cyclohexanecarboxamide]
MIC50 [1]: 1.6 ± 0.1 µM (≈ 0.481 µg/mL)
anti-Cryptococcus activity (in words) [2]: anti-Cryptococcus activity

O=C(Nc1ncc(CCc2ccccc2)s1)C1CCCC1 [Compound 11a, N-(5-Phenethylthiazol-2-yl)cyclopentanecarboxamide]
MIC50 [1]: 0.9 ± 0.1 µM (≈ 0.27 µg/mL)

O=C(Nc1ncc(Cc2ccccc2)s1)C1CCOCC1 [Compound 5b, N-(5-Benzylthiazol-2-yl)tetrahydro-2H-pyran-4-carboxamide]
MIC50 [1]: > 10 µM

O=C(Nc1ncc(-c2ccccc2)s1)C1CCCCC1 [Compound 12b, N-(5-Phenylthiazol-2-yl)cyclohexanecarboxamide]
MIC50 [1]: > 10 µM

O=C(CCC1CCCCC1)Nc1nnc(Cc2ccccc2)s1 [Compound 14a, N-(5-Benzyl-1,3,4-thiadiazol-2-yl)-3-cyclohexylpropanamide]
MIC50 [1]: > 10 µM
anti-Histoplasma activity (in words) [1]: abolished or reduced activity

Cc1nc(NC(=O)CCC2CCCCC2)sc1Cc1ccccc1 [Compound 14c, N-(5-Benzyl-4-methylthiazol-2-yl)-3-cyclohexylpropanamide]
MIC50 [1]: > 10 µM
anti-Histoplasma activity (in words) [1]: reduced anti-Histoplasma activity or were inactive

CC(C)(C)OC(=O)Nc1ncc(C(O)c2ccccc2)s1 (stereo not shown) [Compound 2a, tert-Butyl{5-[hydroxy(phenyl)methyl]thiazol-2-yl}carbamate]
MIC50 [1]: > 10 µM
anti-Histoplasma activity (in words) [1]: lack of activity

O=C(Nc1nc(-c2ccccc2)cs1)C1CCCC1 [Compound 15a, N-(4-Phenylthiazol-2-yl)cyclopentanecarboxamide]
anti-Histoplasma activity (in words) [1]: no activity

Nc1ncc(Cc2ccccc2)s1 [Compound 3a, 5-Benzyl-2-thiazolamine]
MIC50 [1]: > 10 µM

O=C(Nc1nc(C23CC4CC(CC(C4)C2)C3)cs1)C1CCCCC1 [Compound 15e, N-[4-(Adamantan-1-yl)thiazol-2-yl]cyclohexanecarboxamide]
MIC50 [1]: 2.5 ± 0.1 µM (≈ 0.861 µg/mL)

O=C(CC1CCCCC1)Nc1ncc(Cc2ccccc2)s1 [Compound 4e, N-(5-Benzylthiazol-2-yl)-2-cyclohexylacetamide]
anti-Cryptococcus activity (in words) [2]: lost activity

O=C(CCC1CCCCC1)Nc1ncc(Cc2ccccc2)s1 [Compound 4f, N-(5-Benzylthiazol-2-yl)-3-cyclohexylpropanamide]
anti-Cryptococcus activity (in words) [2]: lost activity

O=C(Nc1ncc(Cc2ccccc2)s1)N1CCOCC1 [Compound 5f, N-(5-Benzylthiazol-2-yl)morpholine-4-carboxamide]
MIC50 [1]: > 10 µM

O=C(Nc1nc(C23CC4CC(CC(C4)C2)C3)cs1)C1CCCC1 [Compound 15d, N-[4-(Adamantan-1-yl)thiazol-2-yl]cyclopentanecarboxamide]
MIC50 [1]: 7.4 µM (≈ 2.45 µg/mL)

O=C(Nc1ncc(CC2CCCCC2)s1)c1ccccc1 [Compound 13e, N-[5-(Cyclohexylmethyl)thiazol-2-yl]benzamide]
MIC50 [1]: 4.6 µM (≈ 1.38 µg/mL)

O=C(CC1CCCCC1)Nc1ncc(CC2CCCCC2)s1 [Compound 13c, N-[5-(Cyclohexylmethyl)thiazol-2-yl]-2-cyclohexaneacetamide]
MIC50 [1]: > 10 µM
anti-Histoplasma activity (in words) [1]: no activity; also recorded: abolished activity

O=C(/C=C/C1CCCCC1)Nc1ncc(Cc2ccccc2)s1 [Compound 4g, (E)-N-(5-Benzylthiazol-2-yl)-3-cyclohexylacrylamide]
MIC50 [1]: > 10 µM

O=C(Nc1ncc(Cc2ccccc2)s1)c1cnc(-c2cccs2)s1 [Compound 5h, N-(5-Benzylthiazol-2-yl)-2-(thiophen-2-yl)thiazole-5-carboxamide]
MIC50 [1]: > 10 µM

O=C(CCC1CCCCC1)Nc1ncc(CCc2ccccc2)s1 [Compound 11b, N-(5-Phenethylthiazol-2-yl)-3-cyclohexanepropanamide]
MIC50 [1]: 0.7 ± 0.1 µM (≈ 0.24 µg/mL)

NC(=O)c1cc(-c2ccccc2)sc1NC(=O)c1ccc2c(c1)OCCO2 [4H2, reference compound]
anti-Histoplasma activity (in words) [1]: abolished or reduced activity

O=C(Nc1ncc(CC2CCCCC2)s1)C12CC3CC(CC(C3)C1)C2 [Compound 13f, N-[5-(Cyclohexylmethyl)thiazol-2-yl]adamantane-1-carboxamide]
MIC50 [1]: > 10 µM
anti-Histoplasma activity (in words) [1]: no activity

O=C(CCC1CCCCC1)Nc1nc(-c2ccccc2)cs1 [Compound 15b, N-(4-Phenylthiazol-2-yl)-3-cyclohexanepropanamide]
anti-Histoplasma activity (in words) [1]: no activity

O=C(CC1CCCCC1)Nc1ncc(Cc2cccc3ccccc23)s1 [Compound 9e, N-[5-(1-Naphthalenylmethyl)thiazol-2-yl]-2-cyclohexaneacetamide]
anti-Cryptococcus activity (in words) [2]: lost activity

COc1ccc(Cc2cnc(NC(=O)/C=C/c3ccco3)s2)cc1 [Compound 6d, 3-(2-Furyl)-N-[5-(4-methoxybenzyl)-1,3-thiazol-2-yl]acrylamide]
anti-Histoplasma activity (in words) [1]: did not have any antifungal activity
IC50 [3]: 15 nM

O=C(Nc1ncc(Cc2cccc3ccccc23)s1)C1CCCC1 [Compound 9c, N-[5-(1-Naphthalenylmethyl)thiazol-2-yl]cyclopentanecarboxamide]
anti-Cryptococcus activity (in words) [2]: anti-Cryptococcus activity

CC(C)C(=O)Nc1ncc(Cc2cccc3ccccc23)s1 [Compound 9b, N-[5-(1-Naphthalenylmethyl)thiazol-2-yl]isobutyramide]
anti-Cryptococcus activity (in words) [2]: lost activity

O=C(Nc1ncc(Cc2ccccc2)s1)C(F)(F)F [Compound 4a, N-(5-Benzylthiazol-2-yl)trifluoroacetamide]
MIC50 [1]: > 10 µM

O=C(CCC1CCCCC1)Nc1ncc(Cc2cccc3ccccc23)s1 [Compound 9f, N-[5-(1-Naphthalenylmethyl)thiazol-2-yl]-3-cyclohexanepropanamide]
anti-Cryptococcus activity (in words) [2]: lost activity

O=C(CC1CCCCC1)Nc1nc(C23CC4CC(CC(C4)C2)C3)cs1 [Compound 15f, N-[4-(Adamantan-1-yl)thiazol-2-yl]-2-cyclohexylacetamide]
anti-Histoplasma activity (in words) [1]: abolished activity

CC(C)C(=O)Nc1ncc(Cc2ccccc2)s1 [Compound 4b, N-(5-Benzylthiazol-2-yl)isobutyramide]
MIC50 [1]: 6.7 µM (≈ 1.74 µg/mL)

O=C(Nc1ncc(Cc2cccc3ccccc23)s1)C1CCCCC1 [Compound 9d, N-[5-(1-Naphthalenylmethyl)thiazol-2-yl]cyclohexanecarboxamide]
inhibition of in vitro growth [4]: does not inhibit
inhibition of in vitro growth [5]: does not inhibit
type of antifungal action [6]: inhibitory rather than microbicidal action
inhibition of in vitro growth [7]: does not inhibit
anti-Cryptococcus activity (in words) [2]: anti-Cryptococcus activity

O=C(CCC1CCCCC1)Nc1ncc(Cc2cccc(C(F)(F)F)c2)s1 [Compound 7a, N-{5-[3-(Trifluoromethyl)benzyl]thiazol-2-yl}-3-cyclohexanepropanamide]
anti-Histoplasma activity (in words) [1]: lack of activity

O=C(Nc1ncc(-c2ccccc2)s1)C1CCCC1 [Compound 12a, N-(5-Phenylthiazol-2-yl)cyclopentanecarboxamide]
MIC50 [1]: > 10 µM

O=C(Nc1ncc(Cc2ccccc2)s1)C1CCCC1 [Compound 4c, N-(5-Benzylthiazol-2-yl)cyclopentanecarboxamide]
MIC50 [1]: 1.6 ± 0.1 µM (≈ 0.458 µg/mL)
anti-Cryptococcus activity (in words) [2]: anti-Cryptococcus activity

O=C(Nc1ncc(Cc2ccccc2)s1)c1ccccc1 [Compound 4h, N-(5-Benzylthiazol-2-yl)benzamide]
MIC50 [1]: > 10 µM

O=C(Nc1ncc(Cc2ccccc2)s1)C1CCSCC1 [Compound 5a, N-(5-Benzylthiazol-2-yl)tetrahydro-2H-thiopyran-4-carboxamide]
MIC50 [1]: 4.8 µM (≈ 1.53 µg/mL)

CN(C(=O)CCC1CCCCC1)c1ncc(Cc2ccccc2)s1 [Compound 14b, N-(5-Benzylthiazol-2-yl)-3-cyclohexyl-N-methylpropanamide]
MIC50 [1]: > 10 µM
anti-Histoplasma activity (in words) [1]: abolished or reduced activity

CC(C)C(=O)Nc1ncc(CC2CCCCC2)s1 [Compound 13a, N-[5-(Cyclohexylmethyl)thiazol-2-yl]isobutyramide]
MIC50 [1]: > 10 µM
anti-Histoplasma activity (in words) [1]: no activity
